This passage reports IC50 results from US8927535B2, “Cyclopropyl-fused-1,3-thiazepines as BACE1 and/or BACE2 inhibitors” (Hoffman-La Roche Inc., priority 2011, dated 2015).

The target of the test is T1, BACE2 (Rattus norvegicus, UniProt Q6IE75).
T1 construct: endogenous cellular BACE2 in the Ins1e rat cell line; endogenous in cells; host or cells: INS-TMEM27 (INS1e-derived rat cell line with doxycycline-inducible full-length hTMEM27)
T1 sequence (Q6IE75 63-514): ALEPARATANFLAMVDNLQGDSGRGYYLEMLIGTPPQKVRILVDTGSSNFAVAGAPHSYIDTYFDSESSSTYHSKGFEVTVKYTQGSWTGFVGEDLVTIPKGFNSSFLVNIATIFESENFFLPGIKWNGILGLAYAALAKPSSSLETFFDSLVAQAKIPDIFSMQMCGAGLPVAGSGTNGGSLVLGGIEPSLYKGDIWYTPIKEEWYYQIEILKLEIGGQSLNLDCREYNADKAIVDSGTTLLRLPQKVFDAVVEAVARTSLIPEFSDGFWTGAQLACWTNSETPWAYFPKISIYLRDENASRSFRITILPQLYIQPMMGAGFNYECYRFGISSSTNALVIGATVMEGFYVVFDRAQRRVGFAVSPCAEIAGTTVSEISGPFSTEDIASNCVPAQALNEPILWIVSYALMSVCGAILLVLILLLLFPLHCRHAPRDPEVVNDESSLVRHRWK
As to the kind of experiment: Assay for BACE inhibition by measuring cellular TMEM27 cleavage. Conditions: INS-TMEM27 (INS1e-derived) cells, endogenous BACE2, shed human TMEM27 in medium by ELISA. It is filed as cell-based. The text has this: Assay for BACE Inhibition by Measuring Cellular TMEM27 Cleavage:
The assay uses the principle of inhibition of human TMEM27 cleavage by endogenous cellular BACE2 in the Ins1e rat cell line and shedding from the cell surface into the culture medium, followed by detection in an ELISA assay. Inhibition of BACE2 prevents the cleavage and shedding in a dose-dependent manner.
The stable cell line “INS-TMEM27” represents an INS1e-derived cell line with inducible expression (using the TetOn system) of full-length hTMEM27 in a doxycycline-dependent manner.
INS-TMEM27 cells are seeded in 96-well plates. After 2 days in culture, BACE2 inhibitor is added in a range of concentrations as required by the assay and after a further two hours, doxycycline is added to a final concentration of 500 ng/ml. The cells are incubated for a further 46 hours and the supernatant harvested for detection of shed TMEM27.
An ELISA assay (using a pair of mouse anti-human-TMEM27 antibodies, raised against the extracellular domain of TMEM27) is used for detection of TMEM27 in the culture medium. An EC50 for BACE2 inhibition is calculated using the ELISA readout for each inhibitor concentration with standard curve-fitting software such as XLFit for the Excel spreadsheet program.

As to `NC1=N[C@@]2(c3cc(NC(=O)c4ccc(Cl)cn4)ccc3Cl)C[C@H]2CCS1` (racemic) [Example 4, N-(3-((1SR,7SR)-3-amino-4-thia-2-azabicyclo[5.1.0]oct-2-en-1-yl)-4-chlorophenyl)-5-chloropicolinamide], the midpoint of inhibition, the IC50, lay at 690 nM.
